According to patent US20260166039A1 (SCHRÖDINGER, INC., priority 2022, published 2026):

Experiments:
Wee1 kinase domain = molecular target: T1, Wee1 kinase domain (Homo sapiens, UniProt P30291); assay: Wee1 Kinase Biochemical Assay (ADP-Glo); conditions: 15 uM ATP
T1 construct: Wee1 kinase domain was purchased from Carna (catalog #05-177); purchased Carna 05-177
Outline: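 ADP-Glo detection of ADP produced after 4 h at 25° C by 1 nM Wee1 kinase domain on 2 ng/mL poly(Lys,Tyr 4:1) with 15 uM ATP. Buffer: 40 mM Tris-HCl, 20 mM MgCl2, 0.1 mg/mL BSA, 2 mM DTT. Inhibition is relative to DMSO (high) and saturating Wee1 inhibitor (low) controls.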

[1] = tested on: phosphorylation of Cdc2 Y15 (Wee1 substrate) in A427 cells; assay: Phosphorylated Cdc2 MSD Electrochemiluminescence Assay; type: cell-based; conditions: Homo sapiens, A-427, pCDC2 MSD
Description: Phosphorylated Cdc2 MSD Electrochemiluminescence Assay
The effect of Wee1 inhibitors on cellular phosphorylation of the Wee1 substrate Cdc2 was determined using the following protocol:
A total of 40,000 A427 cells in 100 uL culture medium (1640 medium+10% Fetal bovine serum+1% Penicillin-Streptomycin) were plated in 96-well cell culture plates. 3-fold serial dilutions of test compounds were prepared in completed PBS at 25× final concentration. After 20 hours, the plates were removed and 4 μL of each were added to the cells and incubated with shaking for 30 minutes at 37° C., 5% CO2. Each concentration was tested in duplicate. After a total 6 hours incubation, plates were removed and centrifuged for 5 minutes and 100 uL of supernatant from each well was removed. Cells were washed with 200 μL PBS and lysed with 50 μL MSD lysis buffer (Meso Scale Diagnostics) supplied with 1× complete ULTRA cocktail inhibitor (Roche).
To detect phosphorylation of Cdc2 Y15, 30 μL of capture antibody solution (CST catalog #9116S 1:200) was added into each well of the MSD plate (MSD catalog #L15XB-6), sealed and incubated at 4° C. with shaking (450 rpm) overnight. The antibody solution was removed, wells blocked with BSA solution and plates washed three times with PBST, followed by addition of 30 μl of cell lysate per well. After 2 hours of incubation, plates were washed three times with PBST. 30 μL of 1× detection antibody solution (CST catalog #4539S 1:200) was then added to each well and incubated for 1 hour. Plates were washed three times with PBST and 30 μL of 1× secondary antibody solution (MSD, catalog #:R32AB-1, 1:5000) was added to each well and incubated for 1 hour. Plates were washed three times with PBST and 150 μL of 1× Read Buffer T (MSD, catalog #R92TC-1) was added to each well of the MSD plate. The electrochemiluminescence signal was measured on a MESO SECTOR S600 plate reader. The percentage of remaining phosphorylated Cdc2 signal was calculated following the equation below.
[formula] • HC (high control): Cells treated with DMSO • Cpds: Cells treated with test compounds • LC (low control): Cells treated with positive control Wee1 inhibitor

[2] = class symbols, 1 nM Wee1 enzyme, 4 hours at 25° C.
[3] = 1 nM Wee1 enzyme, 4 hours at 25° C

T1 sequence (P30291 299-569 limits assumed): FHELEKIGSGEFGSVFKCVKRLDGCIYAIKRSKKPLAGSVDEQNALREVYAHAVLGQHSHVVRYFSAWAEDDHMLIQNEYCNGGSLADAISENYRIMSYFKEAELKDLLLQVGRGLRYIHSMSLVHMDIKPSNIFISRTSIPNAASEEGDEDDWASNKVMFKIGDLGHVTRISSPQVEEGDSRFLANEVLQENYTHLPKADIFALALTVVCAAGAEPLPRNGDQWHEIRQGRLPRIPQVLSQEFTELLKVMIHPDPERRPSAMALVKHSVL

Row | IC50 (Wee1 kinase domain; Wee1 kinase domain, ADP-Glo) [nM] | IC50 [1] [nM] | IC50 (Wee1 kinase domain; [2]) [nM] | IC50 (Wee1 kinase domain; [3]) [nM] | Compound
1 | < 10 | 100 to 1000 |  |  | CNCc1cccc(N2c3nc(Nc4ccc(N5CCCCC5)cc4)ncc3[C@@]3(C)COC(C)(C)C[C@@H]23)n1 (single isomer, unassigned) [Example 2]
2 | < 10 | 100 to 1000 |  |  | CN1CCN(c2ccc(Nc3ncc4c(n3)N(c3cccc(C(C)(C)O)n3)[C@@H]3CC(C)(C)OC[C@]43C)cc2)CC1 (single isomer, unassigned) [Example 4]
3 | < 10 | 100 to 1000 |  |  | CNCc1cccc(N2c3nc(Nc4ccc(N5CCOCC5)cc4)ncc3[C@@]3(C)COC(C)(C)C[C@@H]23)n1 (single isomer, unassigned) [Example 5]
4 | < 10 | 100 to 1000 |  |  | Cc1cc(Nc2ncc3c(n2)N(c2cccc(C(C)(C)O)n2)[C@@H]2CC(C)(C)OC[C@]32C)ccc1C1CCN(C)CC1 (single isomer, unassigned) [Example 8]
5 | < 10 | 100 to 1000 |  |  | Cc1cc(Nc2ncc3c(n2)N(c2cccc(C(C)(C)O)n2)[C@@H]2CC(C)(C)OC[C@]32C)ccc1N1CCN(C)CC1 (single isomer, unassigned) [Example 9]
6 | < 10 | 100 to 1000 |  |  | CN1CCC(n2cc(Nc3ncc4c(n3)N(c3cccc(C(C)(C)O)n3)[C@@H]3CC(C)(C)OC[C@]43C)cn2)CC1 (single isomer, unassigned) [Example 11]
7 | < 10 | 100 to 1000 |  |  | CNCc1cccc(N2c3nc(Nc4ccc(N5CCOCC5)c(Cl)c4)ncc3[C@@]3(C)COC(C)(C)C[C@@H]23)n1 (single isomer, unassigned) [Example 14]
8 | < 10 | 100 to 1000 |  |  | CNCc1cccc(N2c3nc(Nc4ccc(N5CCC(F)(F)CC5)cc4)ncc3[C@@]3(C)COC(C)(C)C[C@@H]23)n1 (single isomer, unassigned) [Example 16]
9 | < 10 | 100 to 1000 |  |  | CNCc1cccc(N2c3nc(Nc4ccc(N5CCCOCC5)cc4)ncc3[C@@]3(C)COC(C)(C)C[C@@H]23)n1 (single isomer, unassigned) [Example 18]
10 | < 10 | 100 to 1000 |  |  | CNCc1cccc(N2c3nc(Nc4ccc(N5C[C@@H](C)O[C@@H](C)C5)cc4)ncc3[C@]3(C)COC(C)(C)C[C@H]23)n1 (single isomer, unassigned) [Example 20]
11 | < 10 | 100 to 1000 |  |  | CNCc1cccc(N2c3nc(Nc4ccc(N5CCC(F)(F)C5)cc4)ncc3[C@@]3(C)COC(C)(C)C[C@@H]23)n1 (single isomer, unassigned) [Example 22]
12 | < 10 | 100 to 1000 |  |  | CNCc1cccc(N2c3nc(Nc4ccc(C(=O)N5CCOCC5)cc4)ncc3[C@@]3(C)COC(C)(C)C[C@@H]23)n1 (single isomer, unassigned) [Example 24]
13 | < 10 | 100 to 1000 |  |  | CNCc1cccc(N2c3nc(Nc4ccc(N5CCOCC5)c(C)c4)ncc3[C@@]3(C)COC(C)(C)C[C@@H]23)n1 (single isomer, unassigned) [Example 26]
14 | < 10 | 100 to 1000 |  |  | CNCc1cccc(N2c3nc(Nc4ccc(N5C(=O)CC[C@H]5C)cc4)ncc3[C@@]3(C)COC(C)(C)C[C@@H]23)n1 (single isomer, unassigned) [Example 30]
15 | < 10 | 100 to 1000 |  |  | CNCc1cccc(N2c3nc(Nc4ccc5c(c4)C(=O)N(C)C5)ncc3[C@@]3(C)COC(C)(C)C[C@@H]23)n1 (single isomer, unassigned) [Example 32]
16 | < 10 | 100 to 1000 |  |  | CNCc1cccc(N2c3nc(Nc4ccc(S(C)(=O)=O)cc4)ncc3[C@@]3(C)COC(C)(C)C[C@@H]23)n1 (single isomer, unassigned) [Example 34]

Row | IC50 (Wee1 kinase domain; Wee1 kinase domain, ADP-Glo) [nM] | IC50 [1] [nM] | IC50 (Wee1 kinase domain; [2]) [nM] | IC50 (Wee1 kinase domain; [3]) [nM] | Compound
17 | < 10 | 100 to 1000 |  |  | CNCc1cccc(N2c3nc(Nc4ccc(C5CCOCC5)cc4)ncc3[C@@]3(C)COC(C)(C)C[C@@H]23)n1 (single isomer, unassigned) [Example 35]
18 | < 10 | < 100 |  |  | CNCc1cccc(N2c3nc(Nc4ccc([C@@H]5CCOC5)cc4)ncc3[C@@]3(C)COC(C)(C)C[C@@H]23)n1 (single isomer, unassigned) [Example 38]
19 | < 10 | < 100 |  |  | CNCc1cccc(N2c3nc(Nc4ccc([C@H]5CCOC5)cc4)ncc3[C@@]3(C)COC(C)(C)C[C@@H]23)n1 (single isomer, unassigned) [Example 40]
20 | < 10 | < 100 |  |  | CNCc1cccc(N2c3nc(Nc4ccc(N5C[C@@H]6C[C@H]5CO6)cc4)ncc3[C@@]3(C)COC(C)(C)C[C@@H]23)n1 (single isomer, unassigned) [Example 41]
21 | < 10 | < 100 |  |  | CNCc1cccc(N2c3nc(Nc4ccc(N5C[C@H]6C[C@@H]5CO6)cc4)ncc3[C@@]3(C)COC(C)(C)C[C@@H]23)n1 (single isomer, unassigned) [Example 44]
22 | < 10 | 100 to 1000 |  |  | CNCc1cccc(N2c3nc(Nc4ccccc4)ncc3[C@@]3(C)COC(C)(C)C[C@@H]23)n1 (single isomer, unassigned) [Example 45]
23 | < 10 | < 100 |  |  | CNCc1cccc(N2c3nc(Nc4cnn(C(C)(C)C)c4)ncc3[C@@]3(C)COC(C)(C)C[C@@H]23)n1 (single isomer, unassigned) [Example 48]
24 | < 10 | 100 to 1000 |  |  | CNCc1cccc(N2c3nc(Nc4ccc(N5CCS(=N)(=O)CC5)cc4)ncc3[C@@]3(C)COC(C)(C)C[C@@H]23)n1 (single isomer, unassigned) [Example 49]
25 | < 10 | < 100 |  |  | CNCc1cccc(N2c3nc(Nc4ccc([C@@H]5CCC(=O)N5C)cc4)ncc3[C@@]3(C)COC(C)(C)C[C@@H]23)n1 (single isomer, unassigned) [Example 52]
26 | < 10 | < 100 |  |  | CNCc1cccc(N2c3nc(Nc4ccc([C@H]5CCC(=O)N5C)cc4)ncc3[C@@]3(C)COC(C)(C)C[C@@H]23)n1 (single isomer, unassigned) [Example 54]
27 |  | 1000 to 10000 |  |  | CC1(C)C[C@H]2N(c3cccc([C@@H]4CCCN4)n3)c3nc(Nc4ccn(C5CCOCC5)c(=O)c4)ncc3[C@@]2(C)CO1 (single isomer, unassigned) [Example 392, 1-(tetrahydro-2H-pyran-4-yl)-4-(((4bR,8aR)-4b,7,7-trimethyl-9-(6-((S)-pyrrolidin-2-yl)pyridin-2-yl)-4b,5,7,8,8a,9-hexahydropyrano[3′,4′:4,5]pyrrolo[2,3-d]pyrimidin-2-yl)amino)pyridin-2(1H)-one]
28 |  |  | < 10 |  | CC1(C)C[C@H]2N(c3ccccn3)c3nc(Nc4ccc(N5CCN6CC[C@H]5C6)cc4)ncc3[C@@]2(C)CO1 [Example 809, (4bR,8aR)-N-(4-((5S)-1,4-diazabicyclo[3.2.1]octan-4-yl)phenyl)-4b,7,7-trimethyl-9-(pyridin-2-yl)-4b,5,7,8,8a,9-hexahydropyrano[3′,4′:4,5]pyrrolo[2,3-d]pyrimidin-2-amine]
29 |  |  | < 10 |  | CC[C@]1(O)CCc2ccc(N3c4nc(Nc5ccn(C6CCN(C)CC6)c(=O)c5)ncc4[C@@]4(C)COC(C)(C)C[C@@H]34)nc21 [Example 811, 4-(((4bR,8aR)-9-((S)-7-ethyl-7-hydroxy-6,7-dihydro-5H-cyclopenta[b]pyridin-2-yl)-4b,7,7-trimethyl-4b,5,7,8,8a,9-hexahydropyrano[3′,4′:4,5]pyrrolo[2,3-d]pyrimidin-2-yl)amino)-1-(1-methylpiperidin-4-yl)pyridin-2(1H)-one]
30 |  |  |  | < 10 | CN1C[C@@H]2C[C@H]1CN2c1ccc(Nc2ncc3c(n2)N(c2cccc(C(F)F)n2)[C@@H]2CC(C)(C)OC[C@]32C)cc1 [Example 813, (4bR,8aR)-9-(6-(difluoromethyl)pyridin-2-yl)-4b,7,7-trimethyl-N-(4-((1S,4S)-5-methyl-2,5-diazabicyclo[2.2.1]heptan-2-yl)phenyl)-4b,5,7,8,8a,9-hexahydropyrano[3′,4′:4,5]pyrrolo[2,3-d]pyrimidin-2-amine]
31 |  |  |  | < 10 | CN(C)[C@H]1CCN(c2ccc(Nc3ncc4c(n3)N(c3ccccn3)[C@@H]3CC(C)(C)OC[C@]43C)cc2)C1 [Example 820, (4bR,8aR)-N-(4-((S)-3-(dimethylamino)pyrrolidin-1-yl)phenyl)-4b,7,7-trimethyl-9-(pyridin-2-yl)-4b,5,7,8,8a,9-hexahydropyrano[3′,4′:4,5]pyrrolo[2,3-d]pyrimidin-2-amine]
